{"source": "patent US5942663A", "about": "“Biocidal proteins” (Zeneca Limited, priority 1991, dated 1999)", "key": {"Ascochyta pisi": {"tested_on": "Ascochyta pisi", "format": "cell-based", "settings": "A pisi, 48 hours of incubation"}, "Nectria haematococca": {"tested_on": "Nectria haematococca", "format": "cell-based", "settings": "N haematococca, 48 hours of incubation"}, "Botrytis cinerea": {"tested_on": "Botrytis cinerea", "format": "cell-based", "settings": "B cinerea, 48 hours of incubation"}, "[1]": {"tested_on": "Fusarium oxysporum f.sp. lycopersici", "format": "cell-based", "settings": "48 hours of incubation"}, "Isoelectric focusing": {"assay": "Isoelectric focusing", "format": "physicochemical", "settings": "isoelectric focusing on Immobiline Dry Strips", "protocol": "PAS staining for glycoproteins was done by the method of Zacharius, RM et al (1969; Anal Biochem, 30, 148-152) using ovalbumin (3.2% carbohydrate) as a positive control sample. The pI values of Mj-AMP1 and Mj-AMP2 were determined by isoelectric focusing and found to be about 10.5 for both proteins. Isoelectric focussing was done on precast Immobiline Dry Strips (Pharmacia) using marker proteins in the pI range from 4.7 to 10.6 (Pharmacia)."}, "Alternaria brassicola": {"tested_on": "Alternaria brassicola", "format": "cell-based", "settings": "A brassicola, 48 hours of incubation"}, "Verticillium dahliae": {"tested_on": "Verticillium dahliae", "format": "cell-based", "settings": "V dahliae, 48 hours of incubation"}}, "note": "No end group written: not given here."}
{"substance": "Mj-AMP1: antimicrobial protein from Mirabilis jalapa seeds, dimer of two 4 kDa subunits, 37 residues, SEQ ID NO:1 (QCIGNGGRCNENVGPPYCCSGFCLRQPGQGYGYCKNR; cysteine pairing not given here; also: homodimer)", "values": [{"measurement": "IC50", "setting": "Ascochyta pisi", "result": 200, "unit": "µg/mL"}, {"measurement": "IC50", "setting": "Nectria haematococca", "result": 15, "unit": "µg/mL"}, {"measurement": "IC50", "setting": "Botrytis cinerea", "result": 60, "unit": "µg/mL"}, {"measurement": "IC50", "setting": "[1]", "result": 200, "unit": "µg/mL"}, {"measurement": "pI", "setting": "Isoelectric focusing", "result": "about 10.5"}, {"measurement": "IC50", "setting": "Alternaria brassicola", "result": 20, "unit": "µg/mL"}, {"measurement": "IC50", "setting": "Verticillium dahliae", "result": 12, "unit": "µg/mL"}]}
